In ChEMBL document CHEMBL4765295, “Synthesis, pharmacological profile and 2D-QSAR studies of curcumin-amino acid conjugates as potential drug candidates” (Eur J Med Chem, 2020):
“And” between values parts separate entries of the source, which are not always exact repeats. Equal values may be shown once.

system: Rattus norvegicus; assay: Antiinflammatory activity in Wistar rat model of carrageenan-induced paw edema assessed as reduction in thickness of paw edema at 10 mg/kg, ip pretreated for 1 hr followed by carrageenan challenge and measured after 1 hr (reference value: 2.41 +/-0.05 mm); type: functional; conditions: time 1 hr after carrageenan

SMILES	Activity
COc1cc(/C=C/C(=O)/C=C(O)/C=C/c2ccc(OC(=O)[C@@H](N)Cc3ccccc3)c(OC)c2)ccc1OC(=O)[C@@H](N)Cc1ccccc1.Cl.Cl	1.29 mm

system: Rattus norvegicus; assay: Anti-inflammatory activity in Wistar rat assessed as inhibition of carrageenan-induced paw edema at 10 mg/kg, ip pretreated for 1 hr followed by carrageenan challenge and measured after 1 hr relative to control (reference value: 0.00 +/-0.02 %); type: functional; conditions: time 2 hrs

SMILES	inhibition in vivo at 10 mg/kg
COc1cc(/C=C/C(=O)/C=C(O)/C=C/c2ccc(OC(=O)[C@@H](N)Cc3ccccc3)c(OC)c2)ccc1OC(=O)[C@@H](N)Cc1ccccc1.Cl.Cl	46%

system: Rattus norvegicus; assay: Antiinflammatory activity in Wistar rat model of carrageenan-induced paw edema assessed as reduction in thickness of paw edema at 10 mg/kg, ip pretreated for 1 hr followed by carrageenan challenge and measured after 2 hrs (reference value: 2.06 +/-0.09 mm); type: functional; conditions: time 3 hrs

SMILES	Activity
COc1cc(/C=C/C(=O)/C=C(O)/C=C/c2ccc(OC(=O)[C@@H](N)Cc3ccccc3)c(OC)c2)ccc1OC(=O)[C@@H](N)Cc1ccccc1.Cl.Cl	1.01 mm

system: Rattus norvegicus; assay: Anti-inflammatory activity in Wistar rat assessed as inhibition of carrageenan-induced paw edema at 10 mg/kg, ip pretreated for 1 hr followed by carrageenan challenge and measured after 2 hr relative to control (reference value: 0.00 +/-0.03 %); type: functional; conditions: time 3 hrs

SMILES	inhibition in vivo at 10 mg/kg
COc1cc(/C=C/C(=O)/C=C(O)/C=C/c2ccc(OC(=O)[C@@H](N)Cc3ccccc3)c(OC)c2)ccc1OC(=O)[C@@H](N)Cc1ccccc1.Cl.Cl	51%

system: Rattus norvegicus; assay: Antiinflammatory activity in Wistar rat model of carrageenan-induced paw edema assessed as reduction in thickness of paw edema at 10 mg/kg, ip pretreated for 1 hr followed by carrageenan challenge and measured after 3 hrs (reference value: 1.79 +/-0.07 mm); type: functional; conditions: time 4 hrs

SMILES	Activity
COc1cc(/C=C/C(=O)/C=C(O)/C=C/c2ccc(OC(=O)[C@@H](N)Cc3ccccc3)c(OC)c2)ccc1OC(=O)[C@@H](N)Cc1ccccc1.Cl.Cl	0.66 mm

system: Rattus norvegicus; assay: Anti-inflammatory activity in Wistar rat assessed as inhibition of carrageenan-induced paw edema at 10 mg/kg, ip pretreated for 1 hr followed by carrageenan challenge and measured after 3 hr relative to control (reference value: 0.00 +/-0.1 %); type: functional; conditions: time 4 hrs

SMILES	inhibition in vivo at 10 mg/kg
COc1cc(/C=C/C(=O)/C=C(O)/C=C/c2ccc(OC(=O)[C@@H](N)Cc3ccccc3)c(OC)c2)ccc1OC(=O)[C@@H](N)Cc1ccccc1.Cl.Cl	63%

system: Rattus norvegicus; assay: Antiinflammatory activity in Wistar rat model of carrageenan-induced paw edema assessed as reduction in thickness of paw edema at 10 mg/kg, ip pretreated for 1 hr followed by carrageenan challenge and measured after 4 hrs (reference value: 1.40 +/-0.10 mm); type: functional; conditions: time 5 hrs

SMILES	Activity
COc1cc(/C=C/C(=O)/C=C(O)/C=C/c2ccc(OC(=O)[C@@H](N)Cc3ccccc3)c(OC)c2)ccc1OC(=O)[C@@H](N)Cc1ccccc1.Cl.Cl	0.22 mm

system: Rattus norvegicus; assay: Anti-inflammatory activity in Wistar rat assessed as inhibition of carrageenan-induced paw edema at 10 mg/kg, ip pretreated for 1 hr followed by carrageenan challenge and measured after 4 hr relative to control (reference value: 0.00 +/-0.4 %); type: functional; conditions: time 5 hrs

SMILES	inhibition in vivo at 10 mg/kg
COc1cc(/C=C/C(=O)/C=C(O)/C=C/c2ccc(OC(=O)[C@@H](N)Cc3ccccc3)c(OC)c2)ccc1OC(=O)[C@@H](N)Cc1ccccc1.Cl.Cl	84%

system: Rattus norvegicus; assay: Antiinflammatory activity in Wistar rat model of carrageenan-induced paw edema assessed as reduction in thickness of paw edema at 10 mg/kg, ip pretreated for 1 hr followed by carrageenan challenge and measured after 24 hrs (reference value: 0.83 +/-0.08 mm); type: functional; conditions: time 25 hrs

SMILES	Activity
COc1cc(/C=C/C(=O)/C=C(O)/C=C/c2ccc(OC(=O)[C@@H](N)Cc3ccccc3)c(OC)c2)ccc1OC(=O)[C@@H](N)Cc1ccccc1.Cl.Cl	0.66 mm

system: Rattus norvegicus; assay: Anti-inflammatory activity in Wistar rat assessed as inhibition of carrageenan-induced paw edema at 10 mg/kg, ip pretreated for 1 hr followed by carrageenan challenge and measured after 24 hr relative to control (reference value: 0.00 +/-0.3 %); type: functional; conditions: time 25 hrs

SMILES	inhibition in vivo at 10 mg/kg
COc1cc(/C=C/C(=O)/C=C(O)/C=C/c2ccc(OC(=O)[C@@H](N)Cc3ccccc3)c(OC)c2)ccc1OC(=O)[C@@H](N)Cc1ccccc1.Cl.Cl	20%

system: Rattus norvegicus; assay: Anti-inflammatory activity in Wistar rat assessed as inhibition of carrageenan-induced paw edema at 10 mg/kg, ip pretreated for 1 hr followed by carrageenan challenge and measured after 4 hr relative to indomethacin; type: functional; conditions: time 5 hrs

SMILES	inhibition in vivo at 10 mg/kg
COc1cc(/C=C/C(=O)/C=C(O)/C=C/c2ccc(OC(=O)[C@@H](N)Cc3ccccc3)c(OC)c2)ccc1OC(=O)[C@@H](N)Cc1ccccc1.Cl.Cl	97%

system: Splenocyte; assay: Immunomodulatory activity in Swiss albino mouse splenocytes assessed as cell viability at 10 uM by measuring stimulation index incubated for 72 hrs in presence of mitogenic stimulus phytohaemagglutinin by MTT assay (reference value: 1.00 +/- 0.24); type: functional; conditions: not given

SMILES	Activity_index
COc1cc(/C=C/C(=O)/C=C(O)/C=C/c2ccc(OC(=O)[C@@H](N)Cc3ccccc3)c(OC)c2)ccc1OC(=O)[C@@H](N)Cc1ccccc1.Cl.Cl	1.41

system: Splenocyte; assay: Immunomodulatory activity in Swiss albino mouse splenocytes assessed as cell viability at 10 uM by measuring inhibition of stimulation index incubated for 72 hrs in presence of mitogenic stimulus phytohaemagglutinin by MTT assay relative to indomethacin; type: functional; conditions: read-out: Activity

SMILES	viability at 10 µM
COc1cc(/C=C/C(=O)/C=C(O)/C=C/c2ccc(OC(=O)[C@@H](N)Cc3ccccc3)c(OC)c2)ccc1OC(=O)[C@@H](N)Cc1ccccc1.Cl.Cl	85.6%

system: Peritoneal macrophage; assay: Antiinflammatory activity in […] mouse Peritoneal macrophages assessed as reduction in LPS-induced NO production by measuring reduction in stimulation index at 10 uM preincubated for 1 hr followed by LPS stimulation measured after 24 hrs by Griess method (reference value: 27.31 +/- 2.56 uM); type: functional; conditions: time 25 hrs

SMILES	Activity
COc1cc(/C=C/C(=O)/C=C(O)/C=C/c2ccc(OC(=O)[C@@H](N)Cc3ccccc3)c(OC)c2)ccc1OC(=O)[C@@H](N)Cc1ccccc1.Cl.Cl	16.46 µM

system: Peritoneal macrophage; assay: Antiinflammatory activity in […] mouse Peritoneal macrophages assessed as inhibition of LPS-induced NO production at 10 uM preincubated for 1 hr followed by LPS stimulation measured after 24 hrs by Griess method relative to control (reference value: 0.0 %); type: functional; set-up: scale not given: the % may be the effect or the level left; conditions: time 25 hrs

SMILES	Activity
COc1cc(/C=C/C(=O)/C=C(O)/C=C/c2ccc(OC(=O)[C@@H](N)Cc3ccccc3)c(OC)c2)ccc1OC(=O)[C@@H](N)Cc1ccccc1.Cl.Cl	39.74%

system: Staphylococcus aureus; assay: Antibacterial activity against Staphylococcus aureus ATCC 25923 incubated for 18 hrs by agar dilution method; type: functional; conditions: not given

MIC	SMILES
0.25 µg/mL and 0.34 µM	COc1cc(/C=C/C(=O)/C=C(O)/C=C/c2ccc(OC(=O)[C@@H](N)Cc3ccccc3)c(OC)c2)ccc1OC(=O)[C@@H](N)Cc1ccccc1.Cl.Cl

system: Streptococcus pyogenes; assay: Antibacterial activity against Streptococcus pyogenes ATCC 19615 incubated for 18 hrs by agar dilution method; type: functional; conditions: not given

MIC	SMILES
0.5 µg/mL and 0.68 µM	COc1cc(/C=C/C(=O)/C=C(O)/C=C/c2ccc(OC(=O)[C@@H](N)Cc3ccccc3)c(OC)c2)ccc1OC(=O)[C@@H](N)Cc1ccccc1.Cl.Cl

system: Salmonella typhimurium; assay: Antibacterial activity against Salmonella typhimurium ATCC 19430 incubated for 18 hrs by agar dilution assay; type: functional, Salmonella enterica subsp. enterica serovar Typhimurium; conditions: Salmonella enterica

MIC	SMILES
0.125 µg/mL and 0.17 µM	COc1cc(/C=C/C(=O)/C=C(O)/C=C/c2ccc(OC(=O)[C@@H](N)Cc3ccccc3)c(OC)c2)ccc1OC(=O)[C@@H](N)Cc1ccccc1.Cl.Cl

system: Pseudomonas aeruginosa; assay: Antibacterial activity against Pseudomonas aeruginosa ATCC 27853 incubated for 18 hrs by agar dilution assay; type: functional; conditions: not given

MIC	SMILES
0.5 µg/mL and 0.68 µM	COc1cc(/C=C/C(=O)/C=C(O)/C=C/c2ccc(OC(=O)[C@@H](N)Cc3ccccc3)c(OC)c2)ccc1OC(=O)[C@@H](N)Cc1ccccc1.Cl.Cl

system: Candida albicans; assay: Antifungal activity against Candida albicans incubated for 18 to 24 hrs by CLSI method; type: functional; conditions: time 18-24 hrs

MIC	SMILES
0.5 µg/mL and 0.68 µM	COc1cc(/C=C/C(=O)/C=C(O)/C=C/c2ccc(OC(=O)[C@@H](N)Cc3ccccc3)c(OC)c2)ccc1OC(=O)[C@@H](N)Cc1ccccc1.Cl.Cl

system: A549; assay: Antiproliferative activity against human A549 cells assessed as inhibition of cell growth after 72 hrs by MTT assay; type: functional, cell-based; conditions: A549, 72 h

IC50	SMILES
33.5 µM	COc1cc(/C=C/C(=O)/C=C(O)/C=C/c2ccc(OC(=O)[C@@H](N)Cc3ccccc3)c(OC)c2)ccc1OC(=O)[C@@H](N)Cc1ccccc1.Cl.Cl

system: MCF7; assay: Antiproliferative activity against human MCF7 cells assessed as inhibition of cell growth after 72 hrs by MTT assay; type: functional, cell-based; conditions: MCF7, 72 h

IC50	SMILES
11.5 µM	COc1cc(/C=C/C(=O)/C=C(O)/C=C/c2ccc(OC(=O)[C@@H](N)Cc3ccccc3)c(OC)c2)ccc1OC(=O)[C@@H](N)Cc1ccccc1.Cl.Cl

system: PC-3; assay: Antiproliferative activity against human PC3 cells assessed as inhibition of cell growth after 72 hrs by MTT assay; type: functional, cell-based; conditions: PC-3, 72 h

IC50	SMILES
74.4 µM	COc1cc(/C=C/C(=O)/C=C(O)/C=C/c2ccc(OC(=O)[C@@H](N)Cc3ccccc3)c(OC)c2)ccc1OC(=O)[C@@H](N)Cc1ccccc1.Cl.Cl
